The record followed here is patent publication US7385086B2 (priority 1997, dated 2008).

Each structure is given as a SMILES string.

The subject of the assay is isoniazid (INH) resistant M. tuberculosis. The format is cell-based, Mycobacterium tuberculosis.

With `CCCCCCCCS(=O)(=O)CC(N)=O` [HIII-50, n-Octanesulphonylacetamide], the growth inhibition entry was “inhibits”. In the case of `NNC(=O)c1ccncc1` [isoniazid, reference compound], the isoniazid resistance level is over 0.4 µg/mL.
